According to publication PMC5218480 (PLoS ONE, 2017):

System: MV-4-11 cells
Assay: Gene expression microarray analysis (Affymetrix PrimeView) and GSEA
Type: cell-based, human
Design: RFU PODN (11730768_x_at) / Fold change /veh PODN (11730768_x_at) / RFU LINC00158 (11744669_a_at) / Fold change /veh LINC00158 (11744669_a_at) / RFU DUSP10 (11751237_a_at) / Fold change /veh DUSP10 (11751237_a_at) / RFU ID3 (11757404_x_at) / Fold change /veh ID3 (11757404_x_at) / RFU PLEKHG5 (11737974_s_at) / Fold change /veh PLEKHG5 (11737974_s_at) / RFU LRRC4B (11730491_at) / Fold change /veh LRRC4B (11730491_at) / RFU GIMAP4 (11747438_a_at) / Fold change /veh GIMAP4 (11747438_a_at) / RFU KRT8 (11758183_x_at) / Fold change /veh KRT8 (11758183_x_at) / RFU CNN1 (11734310_a_at) / Fold change /veh CNN1 (11734310_a_at) / RFU VPS37D (11726825_at) / Fold change /veh VPS37D (11726825_at) / RFU C10orf10 (11716522_x_at) / Fold change /veh C10orf10 (11716522_x_at) / RFU KIR2DL2 /// KIR2DL4 /// KIR2DL5A /// KIR2DL5B /// KIR2DS1 /// KIR2DS2 /// KIR2DS3 /// KIR2DS4 /// KIR3DL3 /// KIR3DL3 /// KIR3DS1 (11738374_at) / Fold change /veh KIR2DL2 /// KIR2DL4 /// KIR2DL5A /// KIR2DL5B /// KIR2DS1 /// KIR2DS2 /// KIR2DS3 /// KIR2DS4 /// KIR3DL3 /// KIR3DL3 /// KIR3DS1 (11738374_at) / RFU C1QL1 (11718748_at) / Fold change /veh C1QL1 (11718748_at) / RFU TMPRSS4 (11747572_a_at) / Fold change /veh TMPRSS4 (11747572_a_at) / RFU HAMP (11756126_x_at) / Fold change /veh HAMP (11756126_x_at) / RFU RNFT2 (11725882_a_at) / Fold change /veh RNFT2 (11725882_a_at) / RFU NR4A2 (11747474_a_at) / Fold change /veh NR4A2 (11747474_a_at) / RFU ABCC12 (11746883_a_at) / Fold change /veh ABCC12 (11746883_a_at) / RFU TMEM136 (11760407_x_at) / Fold change /veh TMEM136 (11760407_x_at) / RFU CLDN22 /// WWC2 (11732394_at) / Fold change /veh CLDN22 /// WWC2 (11732394_at) / RFU HLA-DPB1 (11760878_x_at) / Fold change /veh HLA-DPB1 (11760878_x_at) / RFU SPINT1 (11716480_a_at) / Fold change /veh SPINT1 (11716480_a_at) / RFU GAP43 (11754022_s_at) / Fold change /veh GAP43 (11754022_s_at) / RFU A4GNT (11735810_at) / Fold change /veh A4GNT (11735810_at) / RFU PRB3 (11715151_x_at) / Fold change /veh PRB3 (11715151_x_at) / RFU TUBB4B (11761932_at) / Fold change /veh TUBB4B (11761932_at) / RFU CAPN14 (11732068_a_at) / Fold change /veh CAPN14 (11732068_a_at) / RFU TMCC2 (11721928_a_at) / Fold change /veh TMCC2 (11721928_a_at) / RFU IRGQ (11745062_a_at) / Fold change /veh IRGQ (11745062_a_at) / RFU FAM174B (11720279_a_at) / Fold change /veh FAM174B (11720279_a_at) / RFU TMPRSS4 (11748680_a_at) / Fold change /veh TMPRSS4 (11748680_a_at) / RFU FAM212B (11763350_a_at) / Fold change /veh FAM212B (11763350_a_at) / RFU PLEKHG5 (11743358_a_at) / Fold change /veh PLEKHG5 (11743358_a_at) / RFU ZSCAN30 (11745921_a_at) / Fold change /veh ZSCAN30 (11745921_a_at) / RFU CMKLR1 (11741424_a_at) / Fold change /veh CMKLR1 (11741424_a_at) / RFU LOC101060620 /// MAPK8IP1 (11723275_at) / Fold change /veh LOC101060620 /// MAPK8IP1 (11723275_at) / RFU SPTSSB (11747773_x_at) / Fold change /veh SPTSSB (11747773_x_at) / RFU PRSS12 (11739890_at) / Fold change /veh PRSS12 (11739890_at) / RFU BIN1 (11741810_x_at) / Fold change /veh BIN1 (11741810_x_at) / RFU WNT11 (11732464_a_at) / Fold change /veh WNT11 (11732464_a_at) / RFU C10orf10 (11716521_a_at) / Fold change /veh C10orf10 (11716521_a_at) / RFU C5orf56 (11738089_at) / Fold change /veh C5orf56 (11738089_at) / RFU CYB561 (11721691_x_at) / Fold change /veh CYB561 (11721691_x_at) / RFU ANKRD19P (11752326_a_at) / Fold change /veh ANKRD19P (11752326_a_at) / RFU OR2T12 /// OR2T33 /// OR2T8 (11738714_s_at) / Fold change /veh OR2T12 /// OR2T33 /// OR2T8 (11738714_s_at) / RFU VCAN (11748164_a_at) / Fold change /veh VCAN (11748164_a_at) / RFU JSRP1 (11732532_at) / Fold change /veh JSRP1 (11732532_at) / RFU KRTAP10-11 (11738290_x_at) / Fold change /veh KRTAP10-11 (11738290_x_at) / RFU MYO3A (11730013_a_at) / Fold change /veh MYO3A (11730013_a_at) / RFU EBF3 (11725865_a_at) / Fold change /veh EBF3 (11725865_a_at) / RFU CAMK2N1 (11719241_x_at) / Fold change /veh CAMK2N1 (11719241_x_at) / RFU C5orf56 (11738088_a_at) / Fold change /veh C5orf56 (11738088_a_at) / RFU OLFML3 (11715873_a_at) / Fold change /veh OLFML3 (11715873_a_at) / RFU LOC100653217 /// NTM (11731650_a_at) / Fold change /veh LOC100653217 /// NTM (11731650_a_at) / RFU MAPK11 (11762145_a_at) / Fold change /veh MAPK11 (11762145_a_at) / RFU FIZ1 (11724087_x_at) / Fold change /veh FIZ1 (11724087_x_at) / RFU OASL (11726364_x_at) / Fold change /veh OASL (11726364_x_at) / RFU SOX15 (11748057_x_at) / Fold change /veh SOX15 (11748057_x_at) / RFU CD79A (11719716_a_at) / Fold change /veh CD79A (11719716_a_at) / RFU HIST1H1D (11736915_at) / Fold change /veh HIST1H1D (11736915_at) / RFU CASKIN2 (11723855_a_at) / Fold change /veh CASKIN2 (11723855_a_at) / RFU LOC730098 (11760151_x_at) / Fold change /veh LOC730098 (11760151_x_at) / RFU OR4N2 (11742367_at) / Fold change /veh OR4N2 (11742367_at) / RFU PRRT2 (11749266_a_at) / Fold change /veh PRRT2 (11749266_a_at) / RFU SNX32 (11753110_a_at) / Fold change /veh SNX32 (11753110_a_at) / RFU CDHR5 (11726645_a_at) / Fold change /veh CDHR5 (11726645_a_at) / RFU RCAN1 (11760418_a_at) / Fold change /veh RCAN1 (11760418_a_at) / RFU FAM167A (11723789_a_at) / Fold change /veh FAM167A (11723789_a_at) / RFU FAM26E (11764081_at) / Fold change /veh FAM26E (11764081_at) / RFU ISYNA1 (11749810_s_at) / Fold change /veh ISYNA1 (11749810_s_at) / RFU ACY1 (11761880_at) / Fold change /veh ACY1 (11761880_at) / RFU 11764098_at / Fold change /veh 11764098_at / RFU SAMD14 (11745864_x_at) / Fold change /veh SAMD14 (11745864_x_at) / RFU NPB (11741838_a_at) / Fold change /veh NPB (11741838_a_at) / RFU TMPRSS6 (11731388_a_at) / Fold change /veh TMPRSS6 (11731388_a_at) / RFU KRTAP10-2 (11738614_at) / Fold change /veh KRTAP10-2 (11738614_at) / RFU ARHGAP8 /// PRR5-ARHGAP8 (11727945_x_at) / Fold change /veh ARHGAP8 /// PRR5-ARHGAP8 (11727945_x_at) / RFU KRTAP5-7 /// NADSYN1 (11734609_at) / Fold change /veh KRTAP5-7 /// NADSYN1 (11734609_at) / RFU RASL12 (11751679_a_at) / Fold change /veh RASL12 (11751679_a_at) / RFU CDKN2B (11736163_a_at) / Fold change /veh CDKN2B (11736163_a_at) / RFU PRF1 (11729649_at) / Fold change /veh PRF1 (11729649_at) / RFU, ZNF638 /// ZNF638-IT1 / Fold change vs veh, ZNF638 /// ZNF638-IT1 / RFU, PANK3 / Fold change vs veh, PANK3 / RFU, SH3YL1 / Fold change vs veh, SH3YL1 / RFU, ZEB2 / Fold change vs veh, ZEB2 / RFU, NRIP1 / Fold change vs veh, NRIP1 / RFU, PTTG1IP / Fold change vs veh, PTTG1IP / RFU, CAPN2 / Fold change vs veh, CAPN2 / RFU, MED14 / Fold change vs veh, MED14 / RFU, SNORA58 / Fold change vs veh, SNORA58 / RFU, C1orf63 / Fold change vs veh, C1orf63 / RFU, LRRFIP1 / Fold change vs veh, LRRFIP1 / RFU, NDUFAF7 / Fold change vs veh, NDUFAF7 / RFU, SLC12A2 / Fold change vs veh, SLC12A2 / RFU, IBTK / Fold change vs veh, IBTK / RFU, ESF1 / Fold change vs veh, ESF1 / Fold change vs veh, TMEM50B / RFU, TAOK1 / Fold change vs veh, TAOK1 / RFU, ACBD3 / Fold change vs veh, ACBD3 / RFU, TMA16 / Fold change vs veh, TMA16 / RFU, RWDD3 / Fold change vs veh, RWDD3 / RFU, BCAT1 / Fold change vs veh, BCAT1 / RFU, EDEM3 / Fold change vs veh, EDEM3 / RFU, TMEM33 / Fold change vs veh, TMEM33 / RFU, WDR75 / Fold change vs veh, WDR75 / RFU, AHCTF1 / Fold change vs veh, AHCTF1 / RFU, TFRC / Fold change vs veh, TFRC / RFU, ZDHHC17 / Fold change vs veh, ZDHHC17 / RFU, NOM1 / Fold change vs veh, NOM1 / RFU, ARL8B / Fold change vs veh, ARL8B / RFU, ZBTB11 / Fold change vs veh, ZBTB11 / RFU, TAMM41 / Fold change vs veh, TAMM41 / RFU, KIAA1704 /// LOC100996395 / Fold change vs veh, KIAA1704 /// LOC100996395 / RFU, ING1 / Fold change vs veh, ING1 / RFU, TRMT61B / Fold change vs veh, TRMT61B / RFU, FUBP3 / Fold change vs veh, FUBP3 / RFU, TP53 / Fold change vs veh, TP53 / RFU, TNKS2 / Fold change vs veh, TNKS2 / RFU, ZFP14 / Fold change vs veh, ZFP14 / RFU, ACTR2 / Fold change vs veh, ACTR2 / RFU, PPP3R1 / Fold change vs veh, PPP3R1 / RFU, PIK3R1 / Fold change vs veh, PIK3R1 / RFU, HNRNPA1 / Fold change vs veh, HNRNPA1 / RFU, RNF170 / Fold change vs veh, RNF170 / RFU, ZNF28 / Fold change vs veh, ZNF28 / RFU, RNGTT / Fold change vs veh, RNGTT / RFU, OGT / Fold change vs veh, OGT / RFU, BRD1 / Fold change vs veh, BRD1 / RFU, MARS / Fold change vs veh, MARS / RFU, ZNF655 / Fold change vs veh, ZNF655 / RFU, FAHD1 / Fold change vs veh, FAHD1 / RFU, BDP1 / Fold change vs veh, BDP1 / RFU, LRRCC1 / Fold change vs veh, LRRCC1 / RFU, ARID1A / Fold change vs veh, ARID1A / RFU, ZNF146 / Fold change vs veh, ZNF146 / RFU, ZNF330 / Fold change vs veh, ZNF330 / RFU, GPN3 / Fold change vs veh, GPN3 / RFU, C9orf123 / Fold change vs veh, C9orf123 / RFU, N4BP2L2 / Fold change vs veh, N4BP2L2 / RFU, ARFIP1 / Fold change vs veh, ARFIP1 / RFU, FAM179B / Fold change vs veh, FAM179B / RFU, BCL10 / Fold change vs veh, BCL10 / RFU, UHRF1BP1L / Fold change vs veh, UHRF1BP1L / RFU, BET1 / Fold change vs veh, BET1 / RFU, CNOT2 / Fold change vs veh, CNOT2 / RFU, ZNF268 / Fold change vs veh, ZNF268 / Fold change vs veh, ZNF507 / RFU, DGCR2 / Fold change vs veh, DGCR2 / RFU, WDSUB1 / Fold change vs veh, WDSUB1 / Fold change vs veh, HSP90B1 /// MIR3652 / RFU, ADSS / Fold change vs veh, ADSS / RFU, GK / Fold change vs veh, GK / RFU, ZNF148 / Fold change vs veh, ZNF148 / RFU, TAF9 / Fold change vs veh, TAF9 / RFU, SLC1A5 / Fold change vs veh, SLC1A5 / RFU, SLMO2 / Fold change vs veh, SLMO2 / RFU, ABCC4 / Fold change vs veh, ABCC4 / RFU, LOC101060439 /// RAP1B / Fold change vs veh, LOC101060439 /// RAP1B / RFU, RFX7 / Fold change vs veh, RFX7 / RFU, GTPBP10 / Fold change vs veh, GTPBP10 / RFU, CNEP1R1 / Fold change vs veh, CNEP1R1 / RFU, BIVM-ERCC5 /// ERCC5 / Fold change vs veh, BIVM-ERCC5 /// ERCC5 / RFU, ILF3 / Fold change vs veh, ILF3 / RFU 11762660_at / Fold change /veh 11762660_at / RFU VCAN (11757783_s_at) / Fold change /veh VCAN (11757783_s_at) / RFU DDX43 (11728927_at) / Fold change /veh DDX43 (11728927_at) / RFU KRT8 (11758188_x_at) / Fold change /veh KRT8 (11758188_x_at) / RFU NKD1 (11759106_at) / Fold change /veh NKD1 (11759106_at) / RFU SRD5A1 (11742802_a_at) / Fold change /veh SRD5A1 (11742802_a_at) / RFU TPSAB1 /// TPSB2 (11721975_s_at) / Fold change /veh TPSAB1 /// TPSB2 (11721975_s_at) / RFU GSTM3 (11746129_a_at) / Fold change /veh GSTM3 (11746129_a_at) / RFU IL23R (11737362_x_at) / Fold change /veh IL23R (11737362_x_at) / RFU TMEM51 (11727254_a_at) / Fold change /veh TMEM51 (11727254_a_at) / RFU PIWIL2 (11732686_x_at) / Fold change /veh PIWIL2 (11732686_x_at) / RFU ORM1 (11744905_x_at) / Fold change /veh ORM1 (11744905_x_at) / RFU CCDC152 (11743942_at) / Fold change /veh CCDC152 (11743942_at) / RFU ECM1 (11717891_a_at) / Fold change /veh ECM1 (11717891_a_at) / RFU IL23R (11748794_a_at) / Fold change /veh IL23R (11748794_a_at) / RFU TNFAIP8L3 (11732012_x_at) / Fold change /veh TNFAIP8L3 (11732012_x_at) / RFU MBOAT4 (11741988_at) / Fold change /veh MBOAT4 (11741988_at) / RFU 11764193_at / Fold change /veh 11764193_at / RFU TMEM53 (11763286_at) / Fold change /veh TMEM53 (11763286_at) / RFU MAGEB2 (11727129_at) / Fold change /veh MAGEB2 (11727129_at) / RFU TMEM200A (11744735_a_at) / Fold change /veh TMEM200A (11744735_a_at) / RFU CCDC152 (11751479_a_at) / Fold change /veh CCDC152 (11751479_a_at) / RFU FAM211A (11726209_a_at) / Fold change /veh FAM211A (11726209_a_at) / RFU RGS16 (11746705_a_at) / Fold change /veh RGS16 (11746705_a_at) / RFU VCAN (11755009_s_at) / Fold change /veh VCAN (11755009_s_at) / RFU RHOB (11743442_s_at) / Fold change /veh RHOB (11743442_s_at) / RFU RGS16 (11720943_a_at) / Fold change /veh RGS16 (11720943_a_at) / RFU RGS16 (11720944_at) / Fold change /veh RGS16 (11720944_at) / RFU, VPS4B / Fold change vs veh, VPS4B / RFU, CREB1 / Fold change vs veh, CREB1 / RFU, DNAJC13 / Fold change vs veh, DNAJC13 / RFU, GNAQ / Fold change vs veh, GNAQ / RFU, CDK5R1 / Fold change vs veh, CDK5R1 / RFU, ZRANB3 / Fold change vs veh, ZRANB3 / RFU, CUL4A / Fold change vs veh, CUL4A / RFU, CCNY / Fold change vs veh, CCNY / RFU, UFL1 / Fold change vs veh, UFL1 / RFU, COG3 / Fold change vs veh, COG3 / RFU, DIAPH2 / Fold change vs veh, DIAPH2 / RFU, SKA2 / Fold change vs veh, SKA2 / RFU, AFF3 / Fold change vs veh, AFF3 / RFU, LMF1 / Fold change vs veh, LMF1 / RFU, IPO11 / Fold change vs veh, IPO11 / RFU, DFFB / Fold change vs veh, DFFB / RFU, FOXP1 / Fold change vs veh, FOXP1 / RFU, CARD8 / Fold change vs veh, CARD8 / RFU, STRN3 / Fold change vs veh, STRN3 / RFU, ADK / Fold change vs veh, ADK / RFU, RASSF2 / Fold change vs veh, RASSF2 / RFU, WIPF1 / Fold change vs veh, WIPF1 / RFU, LARP1B / Fold change vs veh, LARP1B / RFU, RASA1 / Fold change vs veh, RASA1 / RFU, RB1 / Fold change vs veh, RB1 / RFU, PPFIA1 / Fold change vs veh, PPFIA1 / RFU, MAT2A / Fold change vs veh, MAT2A / RFU, CCT5 / Fold change vs veh, CCT5 / RFU, WDR92 / Fold change vs veh, WDR92 / RFU, CUX1 / Fold change vs veh, CUX1 / RFU, TTC7A / Fold change vs veh, TTC7A / RFU, TMEM135 / Fold change vs veh, TMEM135 / RFU, DEPTOR / Fold change vs veh, DEPTOR / RFU, CPM / Fold change vs veh, CPM / RFU, DNAJB6 / Fold change vs veh, DNAJB6 / RFU, CACNA2D3 / Fold change vs veh, CACNA2D3 / RFU, DTX4 / Fold change vs veh, DTX4 / RFU, TFCP2 / Fold change vs veh, TFCP2 / RFU, GMCL1 /// GMCL1P1 / Fold change vs veh, GMCL1 /// GMCL1P1 / RFU, AEBP2 / Fold change vs veh, AEBP2 / RFU, SNHG1 /// SNORD22 /// SNORD25 /// SNORD26 /// SNORD27 /// SNORD28 /// SNORD29 /// SNORD31 / Fold change vs veh, SNHG1 /// SNORD22 /// SNORD25 /// SNORD26 /// SNORD27 /// SNORD28 /// SNORD29 /// SNORD31 / Fold change (Aza/veh), C12orf56 (ProbeSet 11735607_a_at) / Fold change (ACY-1035/veh), C12orf56 (ProbeSet 11735607_a_at) / Fold change (Aza/veh), FGFR1OP (ProbeSet 11751329_s_at) / Fold change (ACY-1035/veh), FGFR1OP (ProbeSet 11751329_s_at) / Fold change (Aza/veh), VPS36 (ProbeSet 11739960_a_at) / Fold change (ACY-1035/veh), VPS36 (ProbeSet 11739960_a_at) / RFU SYPL1 (11715823_x_at) / Fold change /veh SYPL1 (11715823_x_at) / RFU IGFBP7 (11715501_s_at) / Fold change /veh IGFBP7 (11715501_s_at) / RFU REEP3 (11722064_at) / Fold change /veh REEP3 (11722064_at) / RFU IGLL1 (11728026_x_at) / Fold change /veh IGLL1 (11728026_x_at): dose or concentration left out as unconfirmed
Details: ProbeSet 11724877_a_at; LIST D

SMILES: Nc1ccc(-c2cccs2)cc1NC(=O)c1ccc2c(c1)cc(C1CC1)n2CCN1CCOCC1 [ACY-1035]
- RFU, AEBP2: 30.16 RFU
